Experimental data published in patent US10144715B2, “Piperazine derivatives as liver X receptor modulators” (priority 2014, dated 2018).
pEC50, pKi: −log10 of the molar value. Where two headings read alike, the source gives them in different places. Values belong to the compound of their own block, whether it stands above or below them.

What was measured:
[1] = target: LXR α LBD protein (Homo sapiens (Human), UniProt Q13133); experiment: LXR α radioligand binding assay (SPA, competition with [3H]TO901317); settings: read-out: LXRα Binding Ki
[2] = target: Gal4 DNA binding domain fused to the LBD of LXRα in HEK293 cells (Homo sapiens (Human), UniProt Q13133); experiment: LXR luciferase transcriptional reporter gene assay, agonist mode, LXRα; assay type: cell-based
[3] = agonist mode, read-out: Cell LXRα EC50
[4] = Biological Test Example 2, agonist mode, read-out: Cell LXRα EC50

LXR α LBD protein, sequence (Q13133 209-447): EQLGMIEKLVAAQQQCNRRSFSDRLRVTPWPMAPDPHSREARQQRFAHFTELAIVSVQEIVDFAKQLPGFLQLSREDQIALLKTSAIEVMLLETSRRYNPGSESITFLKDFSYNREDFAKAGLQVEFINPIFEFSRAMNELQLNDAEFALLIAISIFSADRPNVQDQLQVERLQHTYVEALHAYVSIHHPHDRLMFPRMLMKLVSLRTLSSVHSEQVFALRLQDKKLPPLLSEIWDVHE
Gal4 DNA binding domain fused to the LBD of LXRα in HEK293 cells, sequence (Q13133 209-447): as above

SMILES: CCOC(=O)c1cnc(N2CCN(c3ccc(COC(C)=O)c(S(C)(=O)=O)c3)C[C@H]2C(C)C)nc1C(F)(F)F [9-10, ethyl (R)-2-(4-(4-(acetoxymethyl)-3-(methylsulfonyl)phenyl)-2-isopropylpiperazin-1-yl)-4-(trifluoromethyl)pyrimidine-5-carboxylate]
pKi [1]: 7.02
Cell LXRα efficacy [2]: 243 (59) %
pEC50 [2, 3]: 6.61

SMILES: CC(C)[C@H]1CN(c2cccc(S(C)(=O)=O)c2)CCN1C[C@H]1CC[C@H](C(F)(F)F)CC1 (single isomer, unassigned) [48-12]
pKi [1]: 6.61
Cell LXRα efficacy [2]: 363 (66) %
pEC50 ([2]; read-out: Cell LXRα EC50): 6.44

SMILES: CC(C)[C@@H]1CN(c2cccc(S(C)(=O)=O)c2)CCN1c1ccc(C2CC2)nn1 [7-47, (R)-3-cyclopropyl-6-(2-isopropyl-4-(3-(methylsulfonyl)phenyl)piperazin-1-yl)pyridazine]
pKi [1]: 5.51
Cell LXRα efficacy [2]: 4921 (84) %
pEC50 ([2]; read-out: Cell LXRα EC50): 5.31

SMILES: CC(C)[C@@H]1CN(c2ccc(CO)c(S(C)(=O)=O)c2)CCN1c1ncc(C(C)(C)C#N)c(C(F)(F)F)n1 [Cpd No 25-1, (R)-2-(2-(4-(4-(hydroxymethyl)-3-(methylsulfonyl)phenyl)-2-isopropylpiperazin-1-yl)-4-(trifluoromethyl)pyrimidin-5-yl)-2-methylpropanenitrile]
pKi [1]: 7.49
Cell LXRα efficacy [2]: 174 (44) %
pEC50 [2, 3]: 6.76

SMILES: CC(C)[C@@H]1CN(c2cccc(S(C)(=O)=O)c2)CCN1C[C@H]1CC[C@H](C(F)(F)F)CC1 (single isomer, unassigned) [48-10]
pKi [1]: 5.77
Cell LXRα efficacy [2]: 9657 (80) %
pEC50 ([2]; read-out: Cell LXRα EC50): 5.02

pKi [1]: 5.14
pEC50 ([2]; read-out: Cell LXRα EC50): < 4.70
SMILES: CS(=O)(=O)c1cccc(N2CCN(c3nccc(C(F)(F)F)n3)[C@@H](C(F)(F)F)C2)c1 [7-27, (R)-2-(4-(3-(methylsulfonyl)phenyl)-2-(trifluoromethyl)piperazin-1-yl)-4-(trifluoromethyl)pyrimidine]

SMILES: CC(C)[C@@H]1CN(c2cccc(S(C)(=O)=O)c2)CCN1c1ccc(C(F)(F)F)nn1 [7-48, (R)-3-(2-isopropyl-4-(3-(methylsulfonyl)phenyl)piperazin-1-yl)-6-(trifluoromethyl)pyridazine]
pKi [1]: 6.06
Cell LXRα efficacy [2]: 2110 (98) %
pEC50 ([2]; read-out: Cell LXRα EC50): 5.68

SMILES: CC(C)[C@H]1CN(c2ccc(CO)c(S(C)(=O)=O)c2)CCN1C[C@@H]1CCN(CC(F)(F)F)C1 (single isomer, unassigned) [48-59]
pKi ([1]; Biological Test Example 1): 5.50
Cell LXRα efficacy [2]: 1189 (54) %
pEC50 [2, 4]: 5.92

SMILES: CS(=O)(=O)c1cccc(N2CCN(CC3CCC(C(F)(F)F)O3)[C@@H](c3ccc(F)cc3)C2)c1 (stereo partly drawn) [48-74, (2S)-2-(4-fluorophenyl)-4-(3-(methylsulfonyl)phenyl)-1-((5-(trifluoromethyl)tetrahydrofuran-2-yl)methyl)piperazine]
pKi ([1]; Biological Test Example 1): 4.94
pEC50 [2, 4]: < 4.70

pKi [1]: 5.32
pEC50 [2, 3]: < 4.70
SMILES: CC(F)(F)[C@H]1CN(c2cccc(S(C)(=O)=O)c2)CCN1c1nccc(C(F)(F)F)n1 [7-25, (R)-2-(2-(1,1-difluoroethyl)-4-(3-(methylsulfonyl)phenyl)piperazin-1-yl)-4-(trifluoromethyl)pyrimidine]

SMILES: CC(C)[C@@H]1CN(c2ccc(CO)c(S(C)(=O)=O)c2)CCN1c1ccnc(C(N)=O)c1 [4-6, (R)-4-(4-(4-(hydroxymethyl)-3-(methylsulfonyl)phenyl)-2-isopropylpiperazin-1-yl)picolinamide]
pKi [1]: < 5.48
Cell LXRα efficacy [2]: 9385 (44) %
pEC50 [2, 3]: 5.03

SMILES: CC(C)[C@@H]1CN(c2ccc(-c3nc(C(N)=O)cs3)c(S(C)(=O)=O)c2)CCN1c1ncc(CO)c(C(F)(F)F)n1 [11-13, (R)-2-(4-(4-(5-(hydroxymethyl)-4-(trifluoromethyl)pyrimidin-2-yl)-3-isopropylpiperazin-1-yl)-2-(methylsulfonyl)phenyl)thiazole-4-carboxamide]
pKi [1]: 6.15
Cell LXRα efficacy [2]: 2145 (52) %
pEC50 [2, 3]: 5.67

SMILES: Cc1ccc(N2CCN(c3cccc(S(C)(=O)=O)c3)C[C@H]2C(C)C)nn1 [7-46, (R)-3-(2-isopropyl-4-(3-(methylsulfonyl)phenyl)piperazin-1-yl)-6-methylpyridazine]
pKi [1]: 4.87
Cell LXRα efficacy [2]: 14681 (71) %
pEC50 [2, 3]: 4.83

SMILES: Cc1nnc(-c2ccc(N3CCN(c4ncc(CO)c(C(F)(F)F)n4)[C@H](C(C)C)C3)cc2S(C)(=O)=O)s1 [11-11, (R)-(2-(2-isopropyl-4-(4-(5-methyl-1,3,4-thiadiazol-2-yl)-3-(methylsulfonyl)phenyl)piperazin-1-yl)-4-(trifluoromethyl)pyrimidin-5-yl)methanol]
pKi [1]: 5.69
Cell LXRα efficacy [2]: 3508 (31) %
pEC50 [2, 3]: 5.45

SMILES: CC(C)[C@@H]1CN(c2cccc(S(C)(=O)=O)c2)CCN1c1ccc(C(F)F)cn1 [7-34, (R)-1-(5-(difluoromethyl)pyridin-2-yl)-2-isopropyl-4-(3-(methylsulfonyl)phenyl)piperazine]
pKi [1]: 5.48
Cell LXRα efficacy [2]: 13999 (55) %
pEC50 [2, 3]: 4.85

pKi [1]: < 5.48
pEC50 ([2]; read-out: Cell LXRα EC50): < 4.70
SMILES: CC(C)[C@@H]1CN(c2ccc(F)c(S(C)(=O)=O)c2)CCN1c1nc(C(F)(F)F)cc(=O)[nH]1 [Cpd No 24-1, (R)-2-(4-(4-fluoro-3-(methylsulfonyl)phenyl)-2-isopropylpiperazin-1-yl)-6-(trifluoromethyl)pyrimidin-4-ol]

SMILES: CC(C)[C@@H]1CN(c2ccc(F)c(S(C)(=O)=O)c2)CCN1c1ncc(C(F)(F)F)c(Cl)n1 [Cpd No 36-1, (R)-4-chloro-2-(4-(4-fluoro-3-(methylsulfonyl)phenyl)-2-isopropylpiperazin-1-yl)-5-(trifluoromethyl)pyrimidine]
pKi [1]: 7.52
Cell LXRα efficacy [2]: 305 (100) %
pEC50 ([2]; read-out: Cell LXRα EC50): 6.52

SMILES: CC(F)(F)[C@@H]1CN(c2cccc(S(C)(=O)=O)c2)CCN1c1nccc(C(F)(F)F)n1 [7-26, (S)-2-(2-(1,1-difluoroethyl)-4-(3-(methylsulfonyl)phenyl)piperazin-1-yl)-4-(trifluoromethyl)pyrimidine]
pKi [1]: 6.71
Cell LXRα efficacy [2]: 1211 (37) %
pEC50 [2, 3]: 5.92

SMILES: COc1cnc(N2CCN(c3ccc(F)c(S(C)(=O)=O)c3)C[C@H]2C(C)C)nc1C(F)(F)F [Cpd No 29-1, (R)-2-(4-(4-fluoro-3-(methylsulfonyl)phenyl)-2-isopropylpiperazin-1-yl)-5-methoxy-4-(trifluoromethyl)pyrimidine]
pKi [1]: 8.05
Cell LXRα efficacy [2]: 266 (104) %
pEC50 [2, 3]: 6.58

SMILES: CC(C)[C@@H]1CN(c2ccc(F)c(S(N)(=O)=O)c2)CCN1c1ccc(C(F)(F)F)cn1 [Cpd No 18-1, (R)-2-fluoro-5-(3-isopropyl-4-(5-(trifluoromethyl)pyridin-2-yl)piperazin-1-yl)benzenesulfonamide]
pKi [1]: 7.14
Cell LXRα efficacy [2]: 591 (104) %
pEC50 [2, 3]: 6.23

SMILES: CC(C)[C@@H]1CN(c2cccc(S(C)(=O)=O)c2)CCN1C[C@H]1CC[C@@H](C(F)(F)F)CC1 (single isomer, unassigned) [48-9]
pKi [1]: 6.31
Cell LXRα efficacy [2]: 3201 (94) %
pEC50 ([2]; read-out: Cell LXRα EC50): 5.49

SMILES: CCOC(=O)c1cnc(N2CCN(c3ccc(-c4nc(C)no4)c(S(C)(=O)=O)c3)C[C@H]2C(C)C)nc1C(F)(F)F [9-12, ethyl (R)-2-(2-isopropyl-4-(4-(3-methyl-1,2,4-oxadiazol-5-yl)-3-(methylsulfonyl)phenyl)piperazin-1-yl)-4-(trifluoromethyl)pyrimidine-5-carboxylate]
pKi [1]: 5.64
Cell LXRα efficacy [2]: 15144 (26) %
pEC50 [2, 3]: 4.82

SMILES: CC(C)[C@@H]1CN(c2ccc(F)c(S(C)(=O)=O)c2)CCN1c1ncc(C(F)(F)F)cc1[N+](=O)[O-] [7-42, (R)-4-(4-fluoro-3-(methylsulfonyl)phenyl)-2-isopropyl-1-(3-nitro-5-(trifluoromethyl)pyridin-2-yl)piperazine]
pKi [1]: 6.21
Cell LXRα efficacy [2]: 3110 (46) %
pEC50 [2, 3]: 5.51

SMILES: CC(C)[C@H]1CN(c2ccc(CO)c(S(C)(=O)=O)c2)CCN1CC1CCN(CC(F)(F)F)CC1 [48-50, (S)-(4-(3-isopropyl-4-((1-(2,2,2-trifluoroethyl)piperidin-4-yl)methyl)piperazin-1-yl)-2-(methylsulfonyl)phenyl)methanol]
pKi ([1]; Biological Test Example 1): 6.23
Cell LXRα efficacy [2]: 386 (77) %
pEC50 [2, 4]: 6.41

SMILES: CC(C)[C@@H]1CN(c2ccc(F)c(S(C)(=O)=O)c2)CCN1c1ncc(C(F)(F)F)cc1N [Cpd No 21-1, (R)-2-(4-(4-fluoro-3-(methylsulfonyl)phenyl)-2-isopropylpiperazin-1-yl)-5-(trifluoromethyl)pyridin-3-amine]
pKi [1]: 6.22
Cell LXRα efficacy [2]: 3767 (74) %
pEC50 [2]: 5.42

SMILES: CC(C)[C@H]1CN(c2ccc(CO)c(S(C)(=O)=O)c2)CCN1Cc1ccc(C(F)(F)F)c(F)c1 [47-3, (S)-(4-(4-(3-fluoro-4-(trifluoromethyl)benzyl)-3-isopropylpiperazin-1-yl)-2-(methylsulfonyl)phenyl)methanol]
pKi [1]: 6.37
Cell LXRα efficacy [2]: 1280 (60) %
pEC50 [2, 3]: 5.89

SMILES: CS(=O)(=O)c1cccc(N2CCN(CC3CCC(C(F)(F)F)O3)[C@@H](c3ccc(F)cc3)C2)c1 (stereo partly drawn) [48-73, (2S)-2-(4-fluorophenyl)-4-(3-(methylsulfonyl)phenyl)-1-((5-(trifluoromethyl)tetrahydrofuran-2-yl)methyl)piperazine]
pKi [1]: 5.65
pEC50 [2, 4]: < 4.70

SMILES: CC(C)[C@@H]1CN(c2ccc(F)c(S(C)(=O)=O)c2)CCN1c1ccc(C(F)(F)F)nn1 [7-49, (R)-3-(4-(4-fluoro-3-(methylsulfonyl)phenyl)-2-isopropylpiperazin-1-yl)-6-(trifluoromethyl)pyridazine]
pKi [1]: 6.29
Cell LXRα efficacy [2]: 1335 (112) %
pEC50 [2, 3]: 5.87

SMILES: CC1(C)CCC(CN2CCN(c3ccc(CO)c(S(C)(=O)=O)c3)C[C@H]2c2ccccc2)CC1 (single isomer, unassigned) [48-27]
pKi [1]: 5.54
Cell LXRα efficacy [2]: 18123 (60) %
pEC50 [2, 3]: 4.74
